# Literature values as cited in PMC5613062 (Investigational New Drugs, 2017).
# Where two headings read alike, the source gives them in different places.
# Experiments:
# [1] = tested on: SW620 human colorectal cancer xenograft; design: method as in earlier work; conditions: ref IB, cited from earlier work
# [2] = tested on: cytochrome P450 (CYP)3A, 1A and 2C; design: method as in earlier work; conditions: human hepatocytes, preliminary in vitro data; ref IB; cited from earlier work
# CYP 2C19 = tested on: CYP 2C19; design: method as in earlier work; conditions: at concentrations up to 50uM; ref IB; cited from earlier work
# 3T3 = tested on: 3T3; design: method as in earlier work; conditions: 3T3 Neutral Red Uptake phototoxicity test; ref IB; cited from earlier work
# [3] = design: method as in earlier work; conditions: either formulation of AZD6244; ref IB; cited from earlier work
compound,measurement,setting,value
Cn1cnc2c(F)c(Nc3ccc(Br)cc3Cl)c(C(=O)NOCCO)cc21 [Selumetinib],Tumor growth inhibition as a % of control,"[1]; AZD6244 25 mg/kg BD, irinotecan 25 mg/kg once weekly, docetaxel 15 mg/kg once weekly",74 % of control
same,Tumor growth inhibition as a % of control,"[1]; temozolamide experiment, usual monotherapy schedules, doses not given",58 % of control
same,"induction of cytochrome P450 (CYP)3A, 1A and 2C",[2],weak inducer
same,inhibition of CYP2C19,CYP 2C19,no inhibition
same,cytotoxicity in the presence of UV light,3T3,enhanced
same,QTc prolongation,[3],no signal for QTc prolongation
